Read-outs that look alike come from different tables or passages of the source.
Assays:
rat isolated left atrium = assay: Inhibition of the veratrine-induced contraction of the rat isolated left atrium; assay type: cell-based; conditions: for IC50: read-out: Contraction with veratrine Inhibition IC50; for in vitro activity (contraction with veratrine): stated in words
New Zealand rabbits = assay: Occlusion-reperfusion model in the anesthetized animal (ECG ST segment, arterial pressure, heart rate); assay type: in vivo, rabbit; conditions: for Arterial pressure % variation / Heart rate % variation / ST segment % inhibition at 2.5 mg/kg p.o.: 2.5 mg/kg p.o., anesthetized rabbit; for ST segment % inhibition at 2.5 mg/kg p.o.: coronary occlusion-reperfusion; for in vivo activity (inhibition of the raising of the ST segment): stated in words, 2.5 mg/kg by the oral route
Method: Thus, the compounds of the invention are capable of normalizing the electrical disturbances of the ECG brought about by a regional ischemia followed by a reperfusion, this being achieved without a significant effect on the hemodynamic parameters. The test in question is carried out according to the technique described in J. Cardiovasc. Pharmacol., 1995, 25, 126 according to the following protocol.
Male New Zealand rabbits (Elévage des Dombes, Romans, Chatillon-sur-Chalaronne, France) weighing 2.2 to 2.7 kg are used. The animals are placed in quarantine for 4 to 8 days with free access to standardized laboratory food before they are used in the experiments. The animals are housed individually. Water filtered through a 0.22 μm filter is freely available from an automatic dispenser. The quarantine area and the experimental laboratory are air-conditioned (temperature: 20±3° C.; relative humidity: 55±5%) and are illuminated from 7 a.m. to 7 p.m. All the animals are treated according to the code of ethics for laboratory animals (Guide for the Care and Use of Laboratory Animals, […], Public Health Service, National Institutes of Health publication No. 85-23, Revised 1985) and the protocol (No. 28) is carried out in accordance with the recommendations of the local research animals ethics committee. The animals are anesthetized using sodium pentobarbital (60 mg/kg) administered intravenously (i.v.) via a catheter positioned in the vein of the ear. The animals are instrumented with respiratory assistance (683 rodent/small animal ventilator, Havard Apparatus, Les Ulis, France). The gas mixture inhaled is enriched in oxygen. The respiratory rhythm, the flow volume and the percentage of oxygen in the gas mixture are adjusted so as to keep the gases in the blood within physiological limits. A polyethylene catheter, introduced into the carotid artery, is used both for the measurements of arterial pressure and to take the samples intended for the analysis of the blood gases (ABL 510, Radiometer, Copenhagen, Denmark). Anesthesia is maintained by injections of sodium pentobarbital as required. The body temperature of the animals is kept at 38–39° C. throughout the duration of the experiment using a heating blanket (Homothermic Blanket, Havard Apparatus). The various catheters are rinsed using a sterile saline solution (0.9%) comprising heparin (150 U.I./ml). The ECG (DII derivation) is recorded in order to measure the variations in the heart rate (RR interval) and in the amplitude of the ST segment. The arterial pressure is digitized and analyzed simultaneously (Dataflow®, Crystal Biotech, Northboro, Mass.). The thorax of the animal is opened at the fourth intercostal space and the pericardium is incised so as to reveal the left coronary artery. A ligature (Vicryl®, 5/0, Ethicon, Paris, France) is passed under this artery. After examining the ECG in order to detect any signs of myocardial lesions (persistent rise of the ST segment above 0.25 mV), a period of stabilization lasting 30 min is systematically observed. Any animal showing a possible myocardial lesion is excluded from the study. The test compound or the vehicle is administered per os (p.o.), as a 1% solution in methyl-cellulose, in a proportion of 1 ml/kg via a gastric tube made of flexible rubber. Anesthesia is produced 60 min after administration of the test compound or of the vehicle. The main coronary artery is then ligated for 10 min, i.e. 60 min after anesthesia, the tension in the ligature is subsequently relaxed completely for 10 min and then reestablished at the end of the procedure. The heart is excised and perfused using a formaldehyde solution (10%). The surface not fixed by the formaldehyde is regarded as the surface at risk.
The parameters measured in the experiment are: • the systolic and diastolic arterial pressure; • the heart rate (measured from the RR intervals); • the amplitude of the ST segment. […]

[1] = rat isolated left atrium, veratrine 100 μg/ml, product added 15 min before

Row | Compound | IC50 (rat isolated left atrium; [1]) [nM] | in vitro activity (contraction with veratrine) (rat isolated left atrium) | Arterial pressure % variation (New Zealand rabbits) [%] | Heart rate % variation (New Zealand rabbits) [%] | ST segment % inhibition at 2.5 mg/kg p.o. (New Zealand rabbits) [%] | in vivo activity (inhibition of the raising of the ST segment) (New Zealand rabbits) | IC50 (rat isolated left atrium; Rattus norvegicus) [nM]
1 | CC(C)NCC(O)COc1ccc(CC(N)=O)cc1 (stereo not shown) [Atenolol, atenolol] | > 10000 | inactive | −9 | −13 | 49 | active | 
2 | COc1ccccc1SC[C@H](CN[C@@H]1COc2ccccc2SC1)OC [Compound 1-1, 3-(R)-[3-(2-Methoxyphenylthio)-2-(S)-methoxypropyl]amino-3,4-dihydro-2H-1,5-benzoxathiepine] | 640 |  | 8 | 2 | 85 |  | 
3 | COc1ccccc1SC[C@@H](C)CN[C@@H]1COc2ccccc2SC1 [Compound 1-7, 3-(R)-[3-(2-Methoxyphenylthio)-2-(S)-methylpropyl]amino-3,4-dihydro-2H-1,5-benzoxathiepine] | 140 |  | 5 | 0 | 69 |  | 
4 | COc1ccc([C@@H]2Sc3ccccc3N(CCN(C)C)C(=O)[C@@H]2OC(C)=O)cc1 [Diltiazem, diltiazem] | > 10000 | inactive | −27 | −5 | 30 | active | 
5 | CN(c1nc2ccccc2s1)C1CCN(CCCCOc2ccc(F)cc2)CC1 [R 56865] |  |  |  |  | 0 |  | 250

Reference: patent US7109234B2, “Benzoxathiepine derivatives and their use as medicines” (Pierre Fabre Medicament, priority 2001, dated 2006)
